Assay results: patent US20260262647A1, “Synergistic Compositions Containing Guanidine” (Thor GmbH, priority 2023, published 2026)
Where “and” joins values, the source holds several entries; their conditions need not be identical. Equal entries are not always repeated.

How the values were obtained:
[1] = test system: Pseudomonas spec. DSM 115322; test: Minimum inhibitory concentrations and synergy index in Müller-Hinton broth; type: cell-based
Procedure: Test organisms used were Gram-negative bacterial species from the group of pseudomonads, Pseudomonas putida DSM 115323 and Pseudomonas spec. DSM 115322. For this purpose, mixtures with different concentrations of the respective active substances were prepared and tested for their effect on the pseudomonads. The test was run in Müller-Hinton broth MHB with a cell density of 10^6 microbes per ml. When organic acids are used as a combination partner with the guanidine, MHB was adjusted to pH 5.5.
The incubation was run in microplates at 30° C. for 48 hours. After 48 hours, the batches were evaluated for turbidity resulting from growth, and optical density was additionally determined photometrically. In this way, the minimum inhibitory concentrations (MICs) of the two actives were determined individually and in combination.
The calculation was done according to the standard method of F. C. Kull et al., Applied Microbiology, vol. 9 (1961), p. 538.
This involves calculating the synergy index (SI) by the following formula:
[formula] • Qa=concentration of component A in the A+B mixture • QA=concentration of component A as the sole biocide • Qb=concentration of component B in the A+B mixture • QB=concentration of component B as the sole biocide
If the synergy index is greater than 1, this means that there is antagonism. If the synergy index assumes the value 1, this means that the effect of the two biocides/compounds is additive. If the synergy index assumes a value of less than 1, this means that there is synergism between the two biocides/compounds.

[2] = test system: bacteria mixture A; test: Emulsion paint inoculated three times with bacteria mixture A, live bacteria count CFU/g; type: cell-based; conditions: for CFU/g after inoculation: emulsion paint, 7 d
Excerpt: In example 34, the synergistic interaction between guanidine and a zinc compound (zinc oxide) with respect to microbial infestation was examined in an emulsion paint by adding particular amounts of guanidine in the form of guanidine hydrochloride and a zinc compound in the form of zinc oxide, and tested for stability to microbial infestation. The paint tested was an emulsion paint based on styrene-acrylate binder (PVK 77%, pH 8.8) for indoor use, produced in the laboratory, without addition of the usual preservatives.
The samples were inoculated repeatedly, three times in total, with a bacterial cell suspension of the following composition (2% v/w).
• Alcaligenes faecalis NCIMB 13145 • Escherichia coli DSM 13631 • Burkholderia cepacia DSM 9241 • Staphylococcus aureus DSM 799 • Pseudomonas aeruginosa DSM 50071 • Pseudomonas putida DSM 13624
The cell suspension of the bacteria mixture A was produced by growing the individual bacteria at 30° C. for 24 h in liquid culture on a shaker. The growth medium used for the bacteria was Müller-Hinton liquid medium. After growing, the individual liquid cultures were centrifuged, and the cells were resuspended in physiological saline solution. In order to adjust the mixture to a total cell count of 10^9/ml, the individual bacteria suspensions, if necessary, were diluted accordingly before being combined with saline solution. The cell count of the inoculum was determined in each case by chamber counting.
After each inoculation and after incubation at 30° C. for 7 days, microbial infestation was evaluated in the samples by determining the live bacteria count per g of paint (colony-forming units, CFU/g). The CFU/g was determined each time by taking an aliquot (1 g) from the previously homogenized sample and running a serial decadic dilution series in physiological saline solution (0.9% NaCl) by streaking on tryptic soy agar, followed by incubation of the agar plates at 30° C. for 48 h.

[3] = mixture with guanidine, Qa, 48 hours at 30° C.

## O=C(O)c1ccccc1 [benzoic acid]
[1]; benzoic acid (added as sodium benzoate) alone, MHB adjusted to pH 5.5, 48 hours at 30° C.
  QB: Concentration of benzoic acid as the sole agent that shows an endpoint: 1680 ppm
[1]; guanidine and benzoic acid, Qa, pH 5.5
  Synergy index Qa/QA + Qb/QB: 1.00

## C/C=C/C=C/C(=O)O [sorbic acid]
[1]; guanidine and sorbic acid, Qa, pH 5.5
  Synergy index Qa/QA + Qb/QB: 1.00
[1]; sorbic acid (added as potassium sorbate) alone, MHB adjusted to pH 5.5, 48 hours at 30° C.
  QB: Concentration of sorbic acid as the sole agent that shows an endpoint: 1849 ppm

## [O-][n+]1ccccc1S [pyrithione]
[1]; guanidine and pyrithione, Qa
  Synergy index Qa/QA + Qb/QB: 1.00
[1]; pyrithione (added as sodium pyrithione) alone, 48 hours at 30° C.
  QB: Concentration of pyrithione as the sole agent that shows an endpoint: 127 ppm

## CCCCCCCCn1sccc1=O [OIT, octylisothiazolinone]
[1]; OIT alone, 48 hours at 30° C.
  QB: Concentration of OIT as the sole agent that shows an endpoint: 250 ppm
[1]; guanidine and OIT, Qa
  Synergy index Qa/QA + Qb/QB: 1.00

## O=C(O)CN(CCN(CC(=O)O)CC(=O)O)CC(=O)O [EDTA, ethylenediaminetetraacetic acid]
[1]; EDTA alone, 48 hours at 30° C.
  QB: Concentration of EDTA as the sole agent that shows an endpoint: 300 ppm
[1]; guanidine and EDTA, Qa
  Synergy index Qa/QA + Qb/QB: 1.00
[1]; [3]
  Qb (EDTA): Concentration of EDTA in the mixture that shows an endpoint: 250 ppm and 200 ppm and 175 ppm and 125 ppm

## O=[N+]([O-])C(Br)(CO)CO [bronopol]
[1]; bronopol alone, 48 hours at 30° C.
  QB: Concentration of bronopol as the sole agent that shows an endpoint: 25 ppm
[1]; guanidine and bronopol, Qa
  Synergy index Qa/QA + Qb/QB: 1.00

## O=C(O)CC(O)(CC(=O)O)C(=O)O [citric acid]
[1]; citric acid (added as trisodium citrate) alone, MHB adjusted to pH 5.5, 48 hours at 30° C.
  QB: Concentration of citric acid as the sole agent that shows an endpoint: 51293 ppm

## CCCC(O)CO (stereo not shown) [pentane-1,2-diol]
[1]; guanidine and pentane-1,2-diol, Qa
  Synergy index Qa/QA + Qb/QB: 1.00
[1]; pentane-1,2-diol alone, 48 hours at 30° C.
  QB: Concentration of pentane-1,2-diol as the sole agent that shows an endpoint: 10000 ppm

## Cn1sccc1=O [MIT, 2-methyl-4-isothiazolin-3-one]
[1]; MIT alone, 48 hours at 30° C.
  QB: Concentration of MIT as the sole agent that shows an endpoint: 75 ppm
[1]; guanidine and MIT, Qa
  Synergy index Qa/QA + Qb/QB: 1.00

## N#CC(Br)(Br)C(N)=O [DBNPA, dibromonitrilopropionamide]
[1]; DBNPA alone, 48 hours at 30° C.
  QB: Concentration of DBNPA as the sole agent that shows an endpoint: 25 ppm
[1]; guanidine and DBNPA, Qa
  Synergy index Qa/QA + Qb/QB: 1.00

## Cn1sc2ccccc2c1=O [MBIT, N-methyl-1,2-benzisothiazolin-3-one]
[1]; MBIT alone, 48 hours at 30° C.
  QB: Concentration of MBIT as the sole agent that shows an endpoint: 300 ppm
[1]; guanidine and MBIT, Qa
  Synergy index Qa/QA + Qb/QB: 1.00

## OCCc1ccccc1 [phenethyl alcohol]
[1]; guanidine and phenethyl alcohol, Qa
  Synergy index Qa/QA + Qb/QB: 1.00
[1]; phenethyl alcohol alone, 48 hours at 30° C.
  QB: Concentration of phenethyl alcohol as the sole agent that shows an endpoint: 2500 ppm

## CCCCCCOCC(O)CO (stereo not shown) [hexylglycerol]
[1]; guanidine and hexylglycerol, Qa
  Synergy index Qa/QA + Qb/QB: 1.00
[1]; hexylglycerol alone, 48 hours at 30° C.
  QB: Concentration of hexylglycerol as the sole agent that shows an endpoint: 2000 ppm

## CCC(N)(CO)CO [AEPD, 2-aminoethylpropane-1,3-diol]
[1]; AEPD alone, 48 hours at 30° C.
  QB: Concentration of AEPD as the sole agent that shows an endpoint: 5000 ppm
[1]; guanidine and AEPD, Qa
  Synergy index Qa/QA + Qb/QB: 1.00

## CCCCCCC(O)CO (stereo not shown) [octane-1,2-diol]
[1]; guanidine and octane-1,2-diol, Qa
  Synergy index Qa/QA + Qb/QB: 1.00
[1]; octane-1,2-diol alone, 48 hours at 30° C.
  QB: Concentration of octane-1,2-diol as the sole agent that shows an endpoint: 2000 ppm

## Oc1ccccc1-c1ccccc1 [oPP, o-phenylphenol]
[1]; guanidine and oPP, Qa
  Synergy index Qa/QA + Qb/QB: 1.00
[1]; oPP alone, 48 hours at 30° C.
  QB: Concentration of oPP as the sole agent that shows an endpoint: 750 ppm

## CC(C)O [isopropanol]
[1]; guanidine and isopropanol, Qa
  Synergy index Qa/QA + Qb/QB: 1.00
[1]; isopropanol alone, 48 hours at 30° C.
  QB: Concentration of isopropanol as the sole agent that shows an endpoint: 60000 ppm

## CCCCCC(O)CO (stereo not shown) [heptane-1,2-diol]
[1]; guanidine and heptane-1,2-diol, Qa
  Synergy index Qa/QA + Qb/QB: 1.00
[1]; heptane-1,2-diol alone, 48 hours at 30° C.
  QB: Concentration of heptane-1,2-diol as the sole agent that shows an endpoint: 3750 ppm

## OCc1ccccc1 [benzyl alcohol]
[1]; benzyl alcohol alone, 48 hours at 30° C.
  QB: Concentration of benzyl alcohol as the sole agent that shows an endpoint: 2000 ppm
[1]; guanidine and benzyl alcohol, Qa
  Synergy index Qa/QA + Qb/QB: 1.00

## CCCCn1sc2ccccc2c1=O [BBIT, N-butyl-1,2-benzisothiazolin-3-one]
[1]; BBIT alone, 48 hours at 30° C.
  QB: Concentration of BBIT as the sole agent that shows an endpoint: 400 ppm
[1]; guanidine and BBIT, Qa
  Synergy index Qa/QA + Qb/QB: 1.00

## NCCO [MEA, monoethanolamine]
[1]; MEA alone, 48 hours at 30° C.
  QB: Concentration of MEA as the sole agent that shows an endpoint: 2000 ppm
[1]; guanidine and MEA, Qa
  Synergy index Qa/QA + Qb/QB: 1.00

## [O]=[Zn] [Zinc oxide, zinc oxide]
[2]; Zinc oxide 125 ppm (100 ppm Zn), 1. inoculation
  CFU/g after inoculation: 9.4 × 10^5 CFU/g
[2]; Zinc oxide 125 ppm (100 ppm Zn), 2. inoculation
  CFU/g after inoculation: >10^6 CFU/g
[2]; Zinc oxide 125 ppm (100 ppm Zn), 3. inoculation
  CFU/g after inoculation: >10^6 CFU/g
[2]; Zinc oxide 250 ppm (201 ppm Zn), 1. inoculation
  CFU/g after inoculation: 2.2 × 10^4 CFU/g
[2]; Zinc oxide 250 ppm (201 ppm Zn), 2. inoculation
  CFU/g after inoculation: >10^6 CFU/g
[2]; Zinc oxide 250 ppm (201 ppm Zn), 3. inoculation
  CFU/g after inoculation: >10^6 CFU/g
[2]; Zinc oxide 500 ppm (402 ppm Zn), 1. inoculation
  CFU/g after inoculation: 6.6 × 10^4 CFU/g
[2]; Zinc oxide 500 ppm (402 ppm Zn), 2. inoculation
  CFU/g after inoculation: >10^6 CFU/g
[2]; Zinc oxide 500 ppm (402 ppm Zn), 3. inoculation
  CFU/g after inoculation: >10^6 CFU/g
[2]; Zinc oxide 1000 ppm (803 ppm Zn), 1. inoculation
  CFU/g after inoculation: 9.9 × 10^3 CFU/g
[2]; Zinc oxide 1000 ppm (803 ppm Zn), 2. inoculation
  CFU/g after inoculation: >10^6 CFU/g
[2]; Zinc oxide 1000 ppm (803 ppm Zn), 3. inoculation
  CFU/g after inoculation: >10^6 CFU/g
[2]; Zinc oxide 2500 ppm (2009 ppm Zn), 1. inoculation
  CFU/g after inoculation: <100 CFU/g
[2]; Zinc oxide 2500 ppm (2009 ppm Zn), 2. inoculation
  CFU/g after inoculation: <100 CFU/g
[2]; Zinc oxide 2500 ppm (2009 ppm Zn), 3. inoculation
  CFU/g after inoculation: <100 CFU/g
[2]; guanidine and zinc in emulsion paint, Qa, Qb
  Synergy index Qa/QA + Qb/QB: 1.00
[2]; zinc (added as zinc oxide) alone in emulsion paint, endpoint after 3 inoculations up to a maximum of 1000 CFU/g
  QB: Concentration of zinc as the sole agent that shows an endpoint: 2009 ppm

## CC(C)(N)CO [AMP, 2-amino-2-methyl-1-propanol]
[1]; AMP alone, 48 hours at 30° C.
  QB: Concentration of AMP as the sole agent that shows an endpoint: 2500 ppm
[1]; guanidine and AMP, Qa
  Synergy index Qa/QA + Qb/QB: 1.00

## O=C(O)c1ccccc1O [salicylic acid]
[1]; guanidine and salicylic acid, Qa, pH 5.5
  Synergy index Qa/QA + Qb/QB: 1.00
[1]; salicylic acid (added as sodium salicyate) alone, MHB adjusted to pH 5.5, 48 hours at 30° C.
  QB: Concentration of salicylic acid as the sole agent that shows an endpoint: 1713 ppm

## CCCCC(O)CO (stereo not shown) [hexane-1,2-diol]
[1]; guanidine and hexane-1,2-diol, Qa
  Synergy index Qa/QA + Qb/QB: 1.00
[1]; hexane-1,2-diol alone, 48 hours at 30° C.
  QB: Concentration of hexane-1,2-diol as the sole agent that shows an endpoint: 7500 ppm

## OCCCc1ccccc1
[1]; guanidine and phenylpropanol, Qa
  Synergy index Qa/QA + Qb/QB: 1.00
[1]; phenylpropanol alone, 48 hours at 30° C.
  QB: Concentration of phenylpropanol as the sole agent that shows an endpoint: 2000 ppm

## N#CCCC(Br)(C#N)CBr (stereo not shown) [DBDCB, dibromodicyanobutane]
[1]; DBDCB alone, 48 hours at 30° C.
  QB: Concentration of DBDCB as the sole agent that shows an endpoint: 250 ppm
[1]; guanidine and DBDCB, Qa
  Synergy index Qa/QA + Qb/QB: 1.00

## CCCCC(CC)COCC(O)CO (stereo not shown) [EHG, ethylhexylglycerol]
[1]; EHG alone, 48 hours at 30° C.
  QB: Concentration of EHG as the sole agent that shows an endpoint: 2000 ppm
[1]; guanidine and EHG, Qa
  Synergy index Qa/QA + Qb/QB: 1.00

## CC(O)C(=O)O (stereo not shown) [lactic acid]
[1]; guanidine and lactic acid, Qa, pH 5.5
  Synergy index Qa/QA + Qb/QB: 1.00
[1]; lactic acid (added as sodium L-lactate) alone, MHB adjusted to pH 5.5, 48 hours at 30° C.
  QB: Concentration of lactic acid as the sole agent that shows an endpoint: 15896 ppm

## CC(O)(P(=O)(O)O)P(=O)(O)O [HEDP, (1-hydroxyethylidene)bisphosphonic acid]
[1]; HEDP alone, 48 hours at 30° C.
  QB: Concentration of HEDP as the sole agent that shows an endpoint: 300 ppm
[1]; guanidine and HEDP, Qa
  Synergy index Qa/QA + Qb/QB: 1.00
[1]; [3]
  Qb (HEDP): Concentration of HEDP in the mixture that shows an endpoint: 1000 ppm
